# Biological target: Epidermal growth factor receptor (Homo sapiens, UniProt P00533, L858R/T790M)
# Assay: biochemical
# Format: cell-based, Sf21
# Conditions: not given
# Epidermal growth factor receptor (Homo sapiens, UniProt P00533, L858R/T790M), sequence (P00533 25-1210 T790M/L858R limits assumed): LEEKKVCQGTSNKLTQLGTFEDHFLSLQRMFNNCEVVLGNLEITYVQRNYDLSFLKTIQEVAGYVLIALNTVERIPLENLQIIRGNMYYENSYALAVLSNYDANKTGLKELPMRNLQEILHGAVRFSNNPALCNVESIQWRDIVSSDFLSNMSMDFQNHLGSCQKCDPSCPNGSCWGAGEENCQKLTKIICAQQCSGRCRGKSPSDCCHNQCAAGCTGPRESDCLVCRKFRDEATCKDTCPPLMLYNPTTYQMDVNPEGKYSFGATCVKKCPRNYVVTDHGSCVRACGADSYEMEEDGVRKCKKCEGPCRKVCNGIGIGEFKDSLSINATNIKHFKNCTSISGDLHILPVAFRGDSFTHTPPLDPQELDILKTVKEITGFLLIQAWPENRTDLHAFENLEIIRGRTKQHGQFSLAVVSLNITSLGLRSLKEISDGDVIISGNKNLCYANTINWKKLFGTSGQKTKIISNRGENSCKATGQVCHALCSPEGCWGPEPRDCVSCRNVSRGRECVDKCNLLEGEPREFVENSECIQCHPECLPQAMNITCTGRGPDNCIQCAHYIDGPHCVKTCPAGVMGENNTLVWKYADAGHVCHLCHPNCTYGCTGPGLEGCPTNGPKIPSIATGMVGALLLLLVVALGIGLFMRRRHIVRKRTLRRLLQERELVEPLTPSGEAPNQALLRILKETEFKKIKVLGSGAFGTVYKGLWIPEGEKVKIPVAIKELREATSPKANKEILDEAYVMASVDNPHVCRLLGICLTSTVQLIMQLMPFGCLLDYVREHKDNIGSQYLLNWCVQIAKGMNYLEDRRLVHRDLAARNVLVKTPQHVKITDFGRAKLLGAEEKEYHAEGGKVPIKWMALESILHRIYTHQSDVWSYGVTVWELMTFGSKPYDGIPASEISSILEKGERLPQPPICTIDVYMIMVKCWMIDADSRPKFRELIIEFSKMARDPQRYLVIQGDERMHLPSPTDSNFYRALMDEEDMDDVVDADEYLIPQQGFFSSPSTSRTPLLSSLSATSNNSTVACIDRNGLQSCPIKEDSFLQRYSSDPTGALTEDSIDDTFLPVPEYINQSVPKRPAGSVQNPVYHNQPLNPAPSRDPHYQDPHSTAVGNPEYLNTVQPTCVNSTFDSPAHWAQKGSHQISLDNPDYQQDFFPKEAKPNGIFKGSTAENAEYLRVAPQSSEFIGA
row,Compound,IC50 [nM]
1,C=CC(=O)Nc1cc2c(Nc3ccc(F)c(Cl)c3)ncnc2cc1OCc1cn(Cc2ccccc2)nn1,8
2,C=CC(=O)Nc1cc2c(Nc3ccc(F)c(Cl)c3)ncnc2cc1OCc1cn(Cc2ccccc2F)nn1,12
3,C=CC(=O)Nc1cc2c(Nc3ccc(F)c(Cl)c3)ncnc2cc1OCc1cn(CCCO)nn1,4
4,C=CC(=O)Nc1cc2c(Nc3ccc(F)c(Cl)c3)ncnc2cc1OCc1cn(-c2ccccc2)nn1,26
5,C=CC(=O)Nc1cc2c(Nc3ccc(F)c(Cl)c3)ncnc2cc1OCc1cn(Cc2ccc(OC)cc2)nn1,5
6,C=CC(=O)Nc1cc2c(Nc3ccc(F)c(Cl)c3)ncnc2cc1OCc1cn(CCc2ccccc2)nn1,12

# Tested on: NCI-H1975
# Assay: Antiproliferative activity against human NCI-H1975 cells harboring EGFR T790M/L858R double mutant after 72 hrs by EZ-Cytox assay
# Format: functional, cell-based
# Conditions: NCI-H1975, 72 h
row,Compound,IC50 [nM]
1,C=CC(=O)Nc1cc2c(Nc3ccc(F)c(Cl)c3)ncnc2cc1OCc1cn(Cc2ccccc2)nn1,808
2,C=CC(=O)Nc1cc2c(Nc3ccc(F)c(Cl)c3)ncnc2cc1OCc1cn(Cc2ccccc2F)nn1,619
3,C=CC(=O)Nc1cc2c(Nc3ccc(F)c(Cl)c3)ncnc2cc1OCc1cn(CCCO)nn1,1370
4,C=CC(=O)Nc1cc2c(Nc3ccc(F)c(Cl)c3)ncnc2cc1OCc1cn(-c2ccccc2)nn1,4780
5,C=CC(=O)Nc1cc2c(Nc3ccc(F)c(Cl)c3)ncnc2cc1OCc1cn(Cc2ccc(OC)cc2)nn1,701
6,C=CC(=O)Nc1cc2c(Nc3ccc(F)c(Cl)c3)ncnc2cc1OCc1cn(CCc2ccccc2)nn1,2090

# Biological target: Receptor tyrosine-protein kinase erbB-2 (Homo sapiens, UniProt P04626)
# Assay: Inhibition of human C-terminal His6-tagged ERBB2 (676 to end residues) expressed in baculovirus infected sf21 cells using poly(Glu, Tyr) 4:1 as substrate
# Conditions: not given
# Receptor tyrosine-protein kinase erbB-2, sequence (P04626 whole entry): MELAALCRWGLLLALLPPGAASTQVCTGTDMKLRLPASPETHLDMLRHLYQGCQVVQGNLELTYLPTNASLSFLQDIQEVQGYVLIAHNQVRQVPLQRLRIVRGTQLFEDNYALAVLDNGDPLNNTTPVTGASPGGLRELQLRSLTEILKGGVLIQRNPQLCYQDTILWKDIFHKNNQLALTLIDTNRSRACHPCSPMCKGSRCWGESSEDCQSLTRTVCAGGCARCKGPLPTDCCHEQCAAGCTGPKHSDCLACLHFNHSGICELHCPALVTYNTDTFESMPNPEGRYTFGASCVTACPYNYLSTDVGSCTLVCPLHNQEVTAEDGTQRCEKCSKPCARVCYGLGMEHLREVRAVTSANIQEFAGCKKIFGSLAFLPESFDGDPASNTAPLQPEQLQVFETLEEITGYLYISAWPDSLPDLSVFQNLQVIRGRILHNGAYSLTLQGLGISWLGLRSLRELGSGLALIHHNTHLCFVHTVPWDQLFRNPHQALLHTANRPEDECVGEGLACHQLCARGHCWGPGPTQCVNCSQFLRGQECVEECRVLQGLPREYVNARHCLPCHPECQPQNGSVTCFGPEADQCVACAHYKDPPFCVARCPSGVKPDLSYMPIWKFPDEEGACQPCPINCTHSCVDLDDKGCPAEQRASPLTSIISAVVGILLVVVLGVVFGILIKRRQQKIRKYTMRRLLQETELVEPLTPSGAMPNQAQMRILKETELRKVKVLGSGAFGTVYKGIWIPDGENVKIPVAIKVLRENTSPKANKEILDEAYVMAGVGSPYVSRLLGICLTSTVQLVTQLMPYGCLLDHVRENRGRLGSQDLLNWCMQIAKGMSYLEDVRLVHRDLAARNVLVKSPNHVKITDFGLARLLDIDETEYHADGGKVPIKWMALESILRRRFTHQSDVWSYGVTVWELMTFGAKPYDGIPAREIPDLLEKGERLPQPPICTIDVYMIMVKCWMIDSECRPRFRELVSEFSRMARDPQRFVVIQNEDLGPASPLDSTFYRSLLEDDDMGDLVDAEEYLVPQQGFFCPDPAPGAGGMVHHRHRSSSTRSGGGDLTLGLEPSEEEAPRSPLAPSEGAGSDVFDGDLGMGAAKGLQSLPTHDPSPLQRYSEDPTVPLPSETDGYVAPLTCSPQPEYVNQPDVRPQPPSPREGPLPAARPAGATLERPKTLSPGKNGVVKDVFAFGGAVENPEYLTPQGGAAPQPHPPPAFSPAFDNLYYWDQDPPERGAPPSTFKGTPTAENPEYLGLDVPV
row,Compound,IC50 [nM]
1,C=CC(=O)Nc1cc2c(Nc3ccc(F)c(Cl)c3)ncnc2cc1OCc1cn(Cc2ccccc2)nn1,90
2,C=CC(=O)Nc1cc2c(Nc3ccc(F)c(Cl)c3)ncnc2cc1OCc1cn(Cc2ccccc2F)nn1,78
3,C=CC(=O)Nc1cc2c(Nc3ccc(F)c(Cl)c3)ncnc2cc1OCc1cn(CCCO)nn1,67
4,C=CC(=O)Nc1cc2c(Nc3ccc(F)c(Cl)c3)ncnc2cc1OCc1cn(-c2ccccc2)nn1,471
5,C=CC(=O)Nc1cc2c(Nc3ccc(F)c(Cl)c3)ncnc2cc1OCc1cn(Cc2ccc(OC)cc2)nn1,212
6,C=CC(=O)Nc1cc2c(Nc3ccc(F)c(Cl)c3)ncnc2cc1OCc1cn(CCc2ccccc2)nn1,448

# Tested on: PC-9
# Assay: Antiproliferative activity against human PC9 cells harboring EGFR exon-19 del mutant after 72 hrs by EZ-Cytox assay
# Format: functional, cell-based
# Conditions: PC-9, 72 h
row,Compound,IC50 [nM]
1,C=CC(=O)Nc1cc2c(Nc3ccc(F)c(Cl)c3)ncnc2cc1OCc1cn(Cc2ccccc2)nn1,1.2
2,C=CC(=O)Nc1cc2c(Nc3ccc(F)c(Cl)c3)ncnc2cc1OCc1cn(Cc2ccccc2F)nn1,1.2
3,C=CC(=O)Nc1cc2c(Nc3ccc(F)c(Cl)c3)ncnc2cc1OCc1cn(CCCO)nn1,1.5
4,C=CC(=O)Nc1cc2c(Nc3ccc(F)c(Cl)c3)ncnc2cc1OCc1cn(-c2ccccc2)nn1,32
5,C=CC(=O)Nc1cc2c(Nc3ccc(F)c(Cl)c3)ncnc2cc1OCc1cn(Cc2ccc(OC)cc2)nn1,1.1
6,C=CC(=O)Nc1cc2c(Nc3ccc(F)c(Cl)c3)ncnc2cc1OCc1cn(CCc2ccccc2)nn1,3.6

# Biological target: Epidermal growth factor receptor (Homo sapiens, UniProt P00533)
# Assay: not given
# Format: ADME, cell-based, Sf21
# Conditions: not given
# Epidermal growth factor receptor (Homo sapiens, UniProt P00533), sequence (P00533 whole entry): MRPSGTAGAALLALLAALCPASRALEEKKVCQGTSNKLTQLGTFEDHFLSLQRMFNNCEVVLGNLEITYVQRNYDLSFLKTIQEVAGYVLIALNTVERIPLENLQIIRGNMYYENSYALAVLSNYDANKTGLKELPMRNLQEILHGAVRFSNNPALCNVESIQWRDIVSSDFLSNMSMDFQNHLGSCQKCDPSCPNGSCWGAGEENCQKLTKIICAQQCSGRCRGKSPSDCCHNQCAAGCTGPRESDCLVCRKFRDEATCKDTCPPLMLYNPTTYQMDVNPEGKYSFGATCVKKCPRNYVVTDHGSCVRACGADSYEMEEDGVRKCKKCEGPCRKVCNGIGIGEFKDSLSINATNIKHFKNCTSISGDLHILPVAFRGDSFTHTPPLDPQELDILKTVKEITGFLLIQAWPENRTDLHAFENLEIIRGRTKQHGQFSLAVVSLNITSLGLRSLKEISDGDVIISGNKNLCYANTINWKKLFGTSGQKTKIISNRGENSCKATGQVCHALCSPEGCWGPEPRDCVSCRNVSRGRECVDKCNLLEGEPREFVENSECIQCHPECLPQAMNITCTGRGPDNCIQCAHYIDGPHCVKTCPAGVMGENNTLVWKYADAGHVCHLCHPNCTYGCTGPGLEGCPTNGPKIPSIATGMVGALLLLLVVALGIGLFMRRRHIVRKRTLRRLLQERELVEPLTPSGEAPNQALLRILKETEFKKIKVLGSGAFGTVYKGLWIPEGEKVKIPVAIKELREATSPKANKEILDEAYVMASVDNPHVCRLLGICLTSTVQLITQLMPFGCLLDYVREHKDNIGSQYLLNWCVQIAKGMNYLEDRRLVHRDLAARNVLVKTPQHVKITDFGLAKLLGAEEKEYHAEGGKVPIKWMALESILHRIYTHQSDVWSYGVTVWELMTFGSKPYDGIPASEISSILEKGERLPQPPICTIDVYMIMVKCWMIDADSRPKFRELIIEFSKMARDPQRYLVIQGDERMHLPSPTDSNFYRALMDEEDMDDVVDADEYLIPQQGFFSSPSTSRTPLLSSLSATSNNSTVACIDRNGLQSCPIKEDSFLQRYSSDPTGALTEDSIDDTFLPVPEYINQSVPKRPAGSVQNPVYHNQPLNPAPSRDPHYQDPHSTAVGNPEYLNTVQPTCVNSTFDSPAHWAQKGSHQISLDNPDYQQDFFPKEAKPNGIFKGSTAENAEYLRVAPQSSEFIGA
row,Compound,IC50 [nM]
1,C=CC(=O)Nc1cc2c(Nc3ccc(F)c(Cl)c3)ncnc2cc1OCc1cn(Cc2ccccc2)nn1,39
2,C=CC(=O)Nc1cc2c(Nc3ccc(F)c(Cl)c3)ncnc2cc1OCc1cn(Cc2ccccc2F)nn1,65
3,C=CC(=O)Nc1cc2c(Nc3ccc(F)c(Cl)c3)ncnc2cc1OCc1cn(CCCO)nn1,12
4,C=CC(=O)Nc1cc2c(Nc3ccc(F)c(Cl)c3)ncnc2cc1OCc1cn(-c2ccccc2)nn1,74
5,C=CC(=O)Nc1cc2c(Nc3ccc(F)c(Cl)c3)ncnc2cc1OCc1cn(Cc2ccc(OC)cc2)nn1,41
6,C=CC(=O)Nc1cc2c(Nc3ccc(F)c(Cl)c3)ncnc2cc1OCc1cn(CCc2ccccc2)nn1,41

# Reference: ChEMBL document CHEMBL4371069, “Click chemistry for improvement in selectivity of quinazoline-based kinase inhibitors for mutant epidermal growth factor receptors” (Bioorg Med Chem Lett, 2019)
